Assay results taken from ChEMBL document CHEMBL1201862, “PubChem BioAssay data set” (2004).
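How tested: cells in 96-well plates exposed to compound for 48 hours at five concentrations. GI50 = concentration required for 50% inhibition of growth.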 Activity calls are given as the source filed them. Rule as the data show it: active = GI50 up to about 1.1 µM and inactive = higher.

How the values were obtained:
Experiment in all cases: inhibition of tumour cell growth, NCI panel, 48 h
NCI-H522 = test system: NCI-H522
SF-295 = test system: SF-295
HL-60 = test system: HL-60
SNB-19 = test system: SNB-19
HCC 2998 = test system: HCC 2998
HT-29 = test system: HT-29
PC-3 = test system: PC-3
Malme-3M = test system: Malme-3M
EKVX = test system: EKVX
OVCAR-3 = test system: OVCAR-3
786-0 = test system: 786-0
DU-145 = test system: DU-145
K562 = test system: K562
Hs-578T = test system: Hs-578T
SW-620 = test system: SW-620
MOLT-4 = test system: MOLT-4
HCT-116 = test system: HCT-116
UACC-62 = test system: UACC-62
UACC-257 = test system: UACC-257
SR = test system: SR
OVCAR-4 = test system: OVCAR-4
NCI-H226 = test system: NCI-H226
IGROV-1 = test system: IGROV-1
M14 = test system: M14
A498 = test system: A498
MDA-MB-435 = test system: MDA-MB-435
SK-OV-3 = test system: SK-OV-3
COLO 205 = test system: COLO 205
CAKI-1 = test system: CAKI-1
SF-539 = test system: SF-539
SK-MEL-2 = test system: SK-MEL-2
MDA-N = test system: MDA-N
NCI-H460 = test system: NCI-H460
SK-MEL-5 = test system: SK-MEL-5
SK-MEL-28 = test system: SK-MEL-28
LOX IMVI = test system: LOX IMVI
RXF 393 = test system: RXF 393
MCF7 = test system: MCF7
HCT-15 = test system: HCT-15
RPMI-8226 = test system: RPMI-8226
MDA-MB-231 = test system: MDA-MB-231
SF-268 = test system: SF-268
OVCAR-8 = test system: OVCAR-8
T47D = test system: T47D
U-251 = test system: U-251
HOP-62 = test system: HOP-62
NCI-H23 = test system: NCI-H23
NCI/ADR-RES = test system: NCI/ADR-RES
A549 = test system: A549
ACHN = test system: ACHN
KM12 = test system: KM12
OVCAR-5 = test system: OVCAR-5
HOP-92 = test system: HOP-92
SN12C = test system: SN12C
SNB-75 = test system: SNB-75
TK-10 = test system: TK-10
UO-31 = test system: UO-31
CCRF-CEM = test system: CCRF-CEM

## O=Cc1c2c(cc3c1CC1(C3)Cc3cc4c(c(C=O)c3C1)CCCC4)CCCC2
NCI-H522
  GI50: 14.3 µM (inactive)
SF-295
  GI50: 20.6 µM (inactive)
HL-60
  GI50: 56.1 µM (inactive)
SNB-19
  GI50: 98.9 µM (inactive)
HCC 2998
  GI50: 29.4 µM (inactive)
HT-29
  GI50: 18 µM (inactive)
PC-3
  GI50: 19.9 µM (inactive)
Malme-3M
  GI50: > 31.6 µM (inactive)
EKVX
  GI50: 23.9 µM (inactive)
OVCAR-3
  GI50: > 31.6 µM (inactive)
786-0
  GI50: > 31.6 µM (inactive)
DU-145
  GI50: 85.3 µM (inactive)
K562
  GI50: 21.1 µM (inactive)
Hs-578T
  GI50: > 31.6 µM (inactive)
SW-620
  GI50: 89.3 µM (inactive)
MOLT-4
  GI50: 13.3 µM (inactive)
HCT-116
  GI50: 20.4 µM (inactive)
UACC-62
  GI50: > 31.6 µM (inactive)
UACC-257
  GI50: > 31.6 µM (inactive)
SR
  GI50: 10.1 µM (inactive)
OVCAR-4
  GI50: > 31.6 µM (inactive)
NCI-H226
  GI50: > 31.6 µM (inactive)
IGROV-1
  GI50: 23 µM (inactive)
M14
  GI50: > 31.6 µM (inactive)
A498
  GI50: > 10 µM (inactive)
MDA-MB-435
  GI50: > 31.6 µM (inactive)
SK-OV-3
  GI50: > 31.6 µM (inactive)
COLO 205
  GI50: 25.1 µM (inactive)
CAKI-1
  GI50: 46.5 µM (inactive)
SF-539
  GI50: > 31.6 µM (inactive)
SK-MEL-2
  GI50: > 10 µM (inactive)
MDA-N
  GI50: > 31.6 µM (inactive)
NCI-H460
  GI50: 52.2 µM (inactive)
SK-MEL-5
  GI50: > 31.6 µM (inactive)
SK-MEL-28
  GI50: > 100 µM (inactive)
LOX IMVI
  GI50: 23.6 µM (inactive)
RXF 393
  GI50: > 31.6 µM (inactive)
MCF7
  GI50: > 31.6 µM (inactive)
HCT-15
  GI50: 19.2 µM
RPMI-8226
  GI50: 16.8 µM (inactive)
MDA-MB-231
  GI50: 27.6 µM (inactive)
SF-268
  GI50: > 100 µM (inactive)
OVCAR-8
  GI50: 23.5 µM (inactive)
T47D
  GI50: > 31.6 µM (inactive)
U-251
  GI50: > 31.6 µM (inactive)
HOP-62
  GI50: > 31.6 µM (inactive)
NCI-H23
  GI50: 27.5 µM (inactive)
NCI/ADR-RES
  GI50: > 31.6 µM (inactive)
A549
  GI50: 21.3 µM (inactive)
ACHN
  GI50: 22.9 µM (inactive)
KM12
  GI50: 21.6 µM (inactive)
OVCAR-5
  GI50: > 31.6 µM (inactive)
HOP-92
  GI50: 15.5 µM (inactive)
SN12C
  GI50: > 31.6 µM (inactive)
SNB-75
  GI50: > 100 µM (inactive)
TK-10
  GI50: > 31.6 µM (inactive)

## CCCCCCCCCCCCCCCCCCOCC(CO[PH](=O)O)OCCCCCCCCCCCCCCCCCC (stereo not drawn)
NCI-H522
  GI50: > 50 µM (inactive)
HL-60
  GI50: > 50 µM (inactive)
SNB-19
  GI50: > 50 µM (inactive)
HCC 2998
  GI50: > 50 µM (inactive)
HT-29
  GI50: > 50 µM (inactive)
PC-3
  GI50: > 50 µM (inactive)
EKVX
  GI50: > 50 µM (inactive)
OVCAR-3
  GI50: > 50 µM (inactive)
786-0
  GI50: > 50 µM (inactive)
DU-145
  GI50: > 50 µM (inactive)
K562
  GI50: > 50 µM (inactive)
Hs-578T
  GI50: > 50 µM (inactive)
SW-620
  GI50: > 50 µM (inactive)
MOLT-4
  GI50: > 50 µM (inactive)
HCT-116
  GI50: > 50 µM (inactive)
UACC-257
  GI50: > 50 µM (inactive)
SR
  GI50: > 50 µM (inactive)
OVCAR-4
  GI50: > 50 µM (inactive)
NCI-H226
  GI50: > 50 µM (inactive)
IGROV-1
  GI50: > 50 µM (inactive)
M14
  GI50: > 50 µM (inactive)
A498
  GI50: > 50 µM (inactive)
MDA-MB-435
  GI50: > 50 µM (inactive)
SK-OV-3
  GI50: > 50 µM (inactive)
COLO 205
  GI50: > 50 µM (inactive)
CAKI-1
  GI50: > 50 µM (inactive)
SF-539
  GI50: > 50 µM (inactive)
SK-MEL-2
  GI50: > 50 µM (inactive)
MDA-N
  GI50: > 50 µM (inactive)
NCI-H460
  GI50: > 50 µM (inactive)
SK-MEL-5
  GI50: > 50 µM (inactive)
SK-MEL-28
  GI50: > 50 µM (inactive)
LOX IMVI
  GI50: > 50 µM (inactive)
RXF 393
  GI50: > 50 µM (inactive)
MCF7
  GI50: > 50 µM (inactive)
HCT-15
  GI50: > 50 µM
RPMI-8226
  GI50: > 50 µM (inactive)
MDA-MB-231
  GI50: > 50 µM (inactive)
SF-268
  GI50: > 50 µM (inactive)
OVCAR-8
  GI50: > 50 µM (inactive)
T47D
  GI50: > 50 µM (inactive)
U-251
  GI50: > 50 µM (inactive)
NCI/ADR-RES
  GI50: > 50 µM (inactive)
A549
  GI50: > 50 µM (inactive)
KM12
  GI50: > 50 µM (inactive)
OVCAR-5
  GI50: > 50 µM (inactive)
HOP-92
  GI50: > 50 µM (inactive)
SN12C
  GI50: > 50 µM (inactive)
SNB-75
  GI50: > 50 µM (inactive)
TK-10
  GI50: > 50 µM (inactive)

## CC(C)NCC(O)c1ccc(OCc2ccccc2)c(OCc2ccccc2)c1-c1ccccc1 (stereo not drawn)
NCI-H522
  GI50: 1.65 µM (inactive)
SF-295
  GI50: 2.05 µM (inactive)
SNB-19
  GI50: 2.6 µM (inactive)
HCC 2998
  GI50: 1.69 µM (inactive)
HT-29
  GI50: 1.66 µM (inactive)
PC-3
  GI50: 1.53 µM (inactive)
Malme-3M
  GI50: 1.77 µM (inactive)
EKVX
  GI50: 14.3 µM (inactive)
OVCAR-3
  GI50: 1.8 µM (inactive)
786-0
  GI50: 1.71 µM (inactive)
DU-145
  GI50: 1.75 µM (inactive)
K562
  GI50: 1.63 µM (inactive)
Hs-578T
  GI50: 1.34 µM (inactive)
SW-620
  GI50: 1.63 µM (inactive)
MOLT-4
  GI50: 2.05 µM (inactive)
HCT-116
  GI50: 1.79 µM (inactive)
UACC-62
  GI50: 1.41 µM (inactive)
UACC-257
  GI50: 1.88 µM (inactive)
SR
  GI50: 2.68 µM (inactive)
OVCAR-4
  GI50: 1.89 µM (inactive)
NCI-H226
  GI50: 2.33 µM (inactive)
IGROV-1
  GI50: 1.41 µM (inactive)
M14
  GI50: 1.93 µM (inactive)
A498
  GI50: 2.49 µM (inactive)
MDA-MB-435
  GI50: 1.79 µM (inactive)
SK-OV-3
  GI50: 1.67 µM (inactive)
UO-31
  GI50: 2.52 µM (inactive)
COLO 205
  GI50: 1.7 µM (inactive)
CAKI-1
  GI50: 1.76 µM (inactive)
SF-539
  GI50: 1.58 µM (inactive)
SK-MEL-2
  GI50: 2.7 µM (inactive)
MDA-N
  GI50: 1.69 µM (inactive)
NCI-H460
  GI50: 1.79 µM (inactive)
SK-MEL-5
  GI50: 1.25 µM (inactive)
SK-MEL-28
  GI50: 1.76 µM (inactive)
LOX IMVI
  GI50: 3.07 µM (inactive)
RXF 393
  GI50: 3 µM (inactive)
MCF7
  GI50: 1.79 µM (inactive)
HCT-15
  GI50: 1.82 µM
RPMI-8226
  GI50: 2.51 µM (inactive)
MDA-MB-231
  GI50: 1.69 µM (inactive)
SF-268
  GI50: 2.93 µM (inactive)
OVCAR-8
  GI50: 1.73 µM (inactive)
T47D
  GI50: 2.74 µM (inactive)
U-251
  GI50: 1.67 µM (inactive)
HOP-62
  GI50: 1.79 µM (inactive)
NCI-H23
  GI50: 1.97 µM (inactive)
NCI/ADR-RES
  GI50: 2 µM (inactive)
A549
  GI50: 1.72 µM (inactive)
ACHN
  GI50: 1.68 µM (inactive)
KM12
  GI50: 2.16 µM (inactive)
OVCAR-5
  GI50: 1.77 µM (inactive)
HOP-92
  GI50: 2.62 µM (inactive)
SN12C
  GI50: 1.75 µM (inactive)
CCRF-CEM
  GI50: 1.95 µM (inactive)
SNB-75
  GI50: 1.28 µM (inactive)
TK-10
  GI50: 2.35 µM (inactive)
